Test system: 695427-040-R-J1-PDC complex spheroid viability
Assay: Anticancer human tumor 695427-040-R-J1-PDC patient-derived colon adenocarcinoma cell line growth inhibition [RAS]
Details: for IC50: curve of first compound; for viability, T/C: stronger effect = lower value
Summary of the method: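 Multi-cell-type spheroids: tumor cells plus HUVEC endothelial cells and mesenchymal stem cells. RAS-pathway inhibitors were combined with targeted agents, each dosed in half-log steps down from clinical Cmax, or from 10 microM when Cmax was unknown.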

[1] = second compound 0.00316 µM, first compound 0.00316 µM
[2] = second compound 0.00316 µM, first compound 0.01 µM
[3] = second compound 0.00316 µM, first compound 0.0316 µM
[4] = second compound 0.00316 µM, first compound 0.1 µM
[5] = second compound 0.01 µM, first compound 0.00316 µM
[6] = second compound 0.01 µM, first compound 0.01 µM
[7] = second compound 0.01 µM, first compound 0.0316 µM
[8] = second compound 0.01 µM, first compound 0.1 µM
[9] = second compound 0.0316 µM, first compound 0.00316 µM
[10] = second compound 0.0316 µM, first compound 0.01 µM
[11] = second compound 0.0316 µM, first compound 0.0316 µM
[12] = second compound 0.0316 µM, first compound 0.1 µM
[13] = second compound 0.1 µM, first compound 0.00316 µM
[14] = second compound 0.1 µM, first compound 0.01 µM
[15] = second compound 0.1 µM, first compound 0.0316 µM
[16] = second compound 0.1 µM, first compound 0.1 µM
[17] = second compound 0.316 µM, first compound 0.00316 µM
[18] = second compound 0.316 µM, first compound 0.01 µM
[19] = second compound 0.316 µM, first compound 0.0316 µM
[20] = second compound 0.316 µM, first compound 0.1 µM
[21] = second compound 1 µM, first compound 0.00316 µM
[22] = second compound 1 µM, first compound 0.01 µM
[23] = second compound 1 µM, first compound 0.0316 µM
[24] = second compound 1 µM, first compound 0.1 µM
[25] = second compound 0.00316 µM, first compound 0.316 µM
[26] = second compound 0.00316 µM, first compound 1 µM
[27] = second compound 0.01 µM, first compound 0.316 µM
[28] = second compound 0.01 µM, first compound 1 µM
[29] = second compound 0.0316 µM, first compound 0.316 µM
[30] = second compound 0.0316 µM, first compound 1 µM
[31] = second compound 0.1 µM, first compound 0.316 µM
[32] = second compound 0.1 µM, first compound 1 µM
[33] = second compound 0.316 µM, first compound 0.316 µM
[34] = second compound 0.316 µM, first compound 1 µM
[35] = second compound 1 µM, first compound 0.316 µM
[36] = second compound 1 µM, first compound 1 µM
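Note: viability read after seven days of drug exposure.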
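Throughout, for viability, T/C: 100% = DMSO vehicle control viability.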

`CC(C)n1nc(-c2ccc3oc(N)nc3c2)c2c(N)ncnc21` + C=CC(=O)N1CCN(c2nc(OCC3CCCN3C)nc3c(F)c(-c4nc(N)cc(C)c4C(F)(F)F)c(Cl)cc23)C(C)C1 showed an IC50 (second compound 0.00316 µM) greater than 100 nM, an IC50 (second compound 0.01 µM) greater than 100 nM and an IC50 (second compound 0.0316 µM) greater than 100 nM. For the same molecule, the IC50 (second compound 0.1 µM) was greater than 100 nM, the IC50 (second compound 0.316 µM) was greater than 100 nM and the IC50 (second compound 1 µM) was greater than 100 nM. For the same molecule, the viability, T/C (second compound 0.00316 µM, first compound 0.000316 µM) was 98.5%, the viability, T/C (second compound 0.00316 µM, first compound 0.001 µM) was 96.5% and the viability, T/C [1] was 82.4%. The viability, T/C [2] was 80.2%, the viability, T/C [3] was 72.2% and the viability, T/C [4] was 61.8%. For the same molecule, the viability, T/C (second compound 0.01 µM, first compound 0.000316 µM) was 106%, the viability, T/C (second compound 0.01 µM, first compound 0.001 µM) was 87.4% and the viability, T/C [5] was 96.5%. The viability, T/C [6] was 79.9%, the viability, T/C [7] was 70.9% and the viability, T/C [8] was 58.1%. It also gave a viability, T/C (second compound 0.0316 µM, first compound 0.000316 µM) of 101%, a viability, T/C (second compound 0.0316 µM, first compound 0.001 µM) of 89.8% and a viability, T/C [9] of 86%. The viability, T/C [10] was 75%, the viability, T/C [11] was 76.5% and the viability, T/C [12] was 65%. The viability, T/C (second compound 0.1 µM, first compound 0.000316 µM) was 103%, the viability, T/C (second compound 0.1 µM, first compound 0.001 µM) was 96.1% and the viability, T/C [13] was 90%. The viability, T/C [14] was 77%, the viability, T/C [15] was 70.4% and the viability, T/C [16] was 66.7%. For the same molecule, the viability, T/C (second compound 0.316 µM, first compound 0.000316 µM) was 101%, the viability, T/C (second compound 0.316 µM, first compound 0.001 µM) was 88.6% and the viability, T/C [17] was 88.8%. For the same molecule, the viability, T/C [18] was 84%, the viability, T/C [19] was 69.9% and the viability, T/C [20] was 61.6%. For the same molecule, the viability, T/C (second compound 1 µM, first compound 0.000316 µM) was 98.4%, the viability, T/C (second compound 1 µM, first compound 0.001 µM) was 87.1% and the viability, T/C [21] was 88.3%. It also gave a viability, T/C [22] of 78.3%, a viability, T/C [23] of 72.6% and a viability, T/C [24] of 63.4%.
`CCN1CCN(Cc2ccc(Nc3ncc(F)c(-c4cc(F)c5nc(C)n(C(C)C)c5c4)n3)nc2)CC1` + C=CC(=O)N1CCN(c2nc(OCC3CCCN3C)nc3c(F)c(-c4nc(N)cc(C)c4C(F)(F)F)c(Cl)cc23)C(C)C1 was tested, and the IC50 (second compound 0.00316 µM) was greater than 1000 nM, the IC50 (second compound 0.01 µM) was greater than 1000 nM and the IC50 (second compound 0.0316 µM) was greater than 1000 nM. For the same molecule, the IC50 (second compound 0.1 µM) was greater than 1000 nM, the IC50 (second compound 0.316 µM) was greater than 1000 nM and the IC50 (second compound 1 µM) was greater than 1000 nM. For the same molecule, the viability, T/C [1] was 93%, the viability, T/C [2] was 88.4% and the viability, T/C [3] was 88.5%. For the same molecule, the viability, T/C [4] was 88.8%, the viability, T/C [25] was 101% and the viability, T/C [26] was 103%. The viability, T/C [5] was 107%, the viability, T/C [6] was 92.2% and the viability, T/C [7] was 94.1%. For the same molecule, the viability, T/C [8] was 92.4%, the viability, T/C [27] was 101% and the viability, T/C [28] was 108%. For the same molecule, the viability, T/C [9] was 106%, the viability, T/C [10] was 96.3% and the viability, T/C [11] was 95.3%. The viability, T/C [12] was 91.6%, the viability, T/C [29] was 109% and the viability, T/C [30] was 105%. For the same molecule, the viability, T/C [13] was 89%, the viability, T/C [14] was 102% and the viability, T/C [15] was 90.3%. It also gave a viability, T/C [16] of 92.1%, a viability, T/C [31] of 107% and a viability, T/C [32] of 110%. For the same molecule, the viability, T/C [17] was 95.5%, the viability, T/C [18] was 94.3% and the viability, T/C [19] was 96.7%. It also gave a viability, T/C [20] of 94.7%, a viability, T/C [33] of 101% and a viability, T/C [34] of 97%. For the same molecule, the viability, T/C [21] was 94.8%, the viability, T/C [22] was 85.6% and the viability, T/C [23] was 93.7%. It also gave a viability, T/C [24] of 96.6%, a viability, T/C [35] of 99% and a viability, T/C [36] of 94.8%.
With `C[C@@H](NC(=O)c1ncnc(N)c1Cl)c1ncc(C(=O)Nc2cc(C(F)(F)F)c(Cl)cn2)s1` + C=CC(=O)N1CCN(c2nc(OCC3CCCN3C)nc3c(F)c(-c4nc(N)cc(C)c4C(F)(F)F)c(Cl)cc23)C(C)C1 the IC50 (second compound 0.00316 µM) was greater than 10000 nM, the IC50 (second compound 0.01 µM) was greater than 10000 nM and the IC50 (second compound 0.0316 µM) was greater than 10000 nM. It also gave an IC50 (second compound 0.1 µM) greater than 10000 nM, an IC50 (second compound 0.316 µM) greater than 10000 nM and an IC50 (second compound 1 µM) greater than 10000 nM. The viability, T/C [3] was 108%, the viability, T/C [4] was 109% and the viability, T/C [25] was 111%. It also gave a viability, T/C [26] of 105%, a viability, T/C (second compound 0.00316 µM, first compound 3.16 µM) of 99.7% and a viability, T/C (second compound 0.00316 µM, first compound 10 µM) of 75.2%. For the same molecule, the viability, T/C [7] was 121%, the viability, T/C [8] was 109% and the viability, T/C [27] was 114%. The viability, T/C [28] was 103%, the viability, T/C (second compound 0.01 µM, first compound 3.16 µM) was 96.2% and the viability, T/C (second compound 0.01 µM, first compound 10 µM) was 75.9%. The viability, T/C [11] was 107%, the viability, T/C [12] was 99.8% and the viability, T/C [29] was 104%. The viability, T/C [30] was 101%, the viability, T/C (second compound 0.0316 µM, first compound 3.16 µM) was 94.4% and the viability, T/C (second compound 0.0316 µM, first compound 10 µM) was 75.9%. The viability, T/C [15] was 113%, the viability, T/C [16] was 105% and the viability, T/C [31] was 99.8%. The viability, T/C [32] was 101%, the viability, T/C (second compound 0.1 µM, first compound 3.16 µM) was 98.4% and the viability, T/C (second compound 0.1 µM, first compound 10 µM) was 73.1%. The viability, T/C [19] was 110%, the viability, T/C [20] was 105% and the viability, T/C [33] was 108%. It also gave a viability, T/C [34] of 105%, a viability, T/C (second compound 0.316 µM, first compound 3.16 µM) of 103% and a viability, T/C (second compound 0.316 µM, first compound 10 µM) of 76.6%. For the same molecule, the viability, T/C [23] was 108%, the viability, T/C [24] was 94.4% and the viability, T/C [35] was 103%. The viability, T/C [36] was 95.5%, the viability, T/C (second compound 1 µM, first compound 3.16 µM) was 92.6% and the viability, T/C (second compound 1 µM, first compound 10 µM) was 72.9%.
